Test results taken from PMC5052559, “A fragment-based approach applied to a highly flexible target: Insights and challenges towards the inhibition of HSP70 isoforms” (Scientific Reports, 2016).

What was measured:
WT HSC70-NBD = target: T1, WT HSC70-NBD (Homo sapiens, UniProt P11142); assay: SPR binding to wild-type HSC70-NBD; conditions: for Kd / Kd WT HSC70-NBD: 25 °C; for LE (ligand efficiency): calculated using the SPR Kd on WT HSC70-NBD; for increase in affinity compared to parent fragment: SPR Kd, 23 vs 10, 24 vs 19
T1 construct: WT HSPA8 (HSC70) residues 1 to 381; GST (N, cleaved yes); made in house; host or cells: E. coli BL21-AI (expressed as described for FL-HSP72)
Description: (§1) SPR experiments were carried out using a Biacore T200 (GE Healthcare) at 25 °C. Amine coupling chemistry was used to immobilise the HSC70 NBD domain and S275W, S275F and S275A HSC70-NBD mutant proteins on a carboxymethyl-5′-dextran (CM5) sensor chip. The chip’s surface was activated with a 10 min injection of a 1:1 mixture of 100 mM N-hydroxysuccinimide and 400 mM 1-ethyl-3-(3-dimethylaminopropyl)-carbodiimide. […] The remaining activated groups on the surface were blocked with a 7 min injection of 1 M ethanolamine at pH 8.5. […] Flow cell one was left unmodified as the reference surface.
(§2) In addition, a DMSO correction curve, prepared as described in the GE manual, was used to correct the effects of the solvent on signal intensity. Raw SPR data from the single point screen was processed and analysed using Pipeline Pilot version 8.0.1.500[37]. Firstly, the reported binding level for each fragment was corrected by subtraction of the buffer blank.
(§3) The initial fragment hits were further investigated in a three-point concentration-response experiment against freshly immobilised WT HSC70-NBD and the S275W HSC70-NBD mutants using the same experimental protocol as for the primary screen. Compound dilutions of 50, 100 and 200 μM were generated using the ECHO 550.

S275W HSC70-NBD = target: T2, S275W HSC70-NBD (Homo sapiens, UniProt P11142, S275W); assay: SPR binding to S275W HSC70-NBD mutant
T2 construct: WT HSPA8 (HSC70) residues 1 to 381; GST (N, cleaved yes); made in house; host or cells: E. coli BL21-AI (expressed as described for FL-HSP72)
Description: as §1, §2, §3

S275F HSC70-NBD = target: T3, S275F HSC70-NBD (Homo sapiens, UniProt P11142, S275F); assay: SPR binding to S275F HSC70-NBD mutant
T3 construct: WT HSPA8 (HSC70) residues 1 to 381; GST (N, cleaved yes); made in house; host or cells: E. coli BL21-AI (expressed as described for FL-HSP72)
Description: SPR experiments were carried out using a Biacore T200 (GE Healthcare) at 25 °C. Amine coupling chemistry was used to immobilise the HSC70 NBD domain and S275W, S275F and S275A HSC70-NBD mutant proteins on a carboxymethyl-5′-dextran (CM5) sensor chip. The chip’s surface was activated with a 10 min injection of a 1:1 mixture of 100 mM N-hydroxysuccinimide and 400 mM 1-ethyl-3-(3-dimethylaminopropyl)-carbodiimide. The HSC70 proteins (70 μg/mL in 10 mM sodium acetate, 750 μM ADP, pH 5.0) were immobilised on the surface over a 10 min injection period. The remaining activated groups on the surface were blocked with a 7 min injection of 1 M ethanolamine at pH 8.5. For all the above procedures the flow rate was maintained at 10 μL/min and a 1x phosphate buffered saline running buffer (PBS running buffer: 10 mM NaHPO4/NaH2PO4 pH 7.4, 2.7 mM KCl, 137 mM NaCl) was used during immobilisation. Approximately ~13,000 response units (RU) of protein could be routinely captured on the CM5 chip on flow cells two to four. Flow cell one was left unmodified as the reference surface. Our in-house fragment library of 1962 fragments at a stock concentration of 100 mM in 100% (v/v) was screened. SPR screening plates were prepared by dispensing of 0.1 μL of each fragment in 384-well polypropylene V-bottomed plates (Greiner) using an ECHO 550 acoustic liquid dispenser (Labcyte) followed by addition of fresh DMSO and running buffer to give a final fragment concentration of 125 μM in 5% (v/v) DMSO in an assay volume of 80 μL.
The full fragment screen was carried out against freshly immobilised WT-HSC70 NBD and the S275W and S275F HSC70-NBD mutants, using the same experimental setting as for the clean screen and a final fragment concentration of 125 μM. Injections of running buffer and of 125 μM adenosine, which was used as a positive control to monitor the health of the protein, were carried out at intervals of 35 cycles throughout the screen. In addition, a DMSO correction curve, prepared as described in the GE manual, was used to correct the effects of the solvent on signal intensity. Raw SPR data from the single point screen was processed and analysed using Pipeline Pilot version 8.0.1.500[37]. Firstly, the reported binding level for each fragment was corrected by subtraction of the buffer blank. Secondly, the values were corrected for the molecular weight of each fragment and the binding was normalised to the binding level observed for the closest adenosine control. […] However, fragments with a binding level exceeding two times the theoretical Rmax were excluded, as we considered this an indication of superstoichiometric binding. Finally, fragments showing preferred binding to wild-type HSC70-NBD versus the HSC70-NBD mutants with a blocked adenine sub pocket were identified by plotting the binding levels of the fragments to wild-type HSC70-NBD against the binding levels of the respective mutant HSC70-NBD variants and added to the primary hit list. In total this procedure yielded 54 initial fragment hits.

HSC70-NBD S275A mutant = target: T4, HSC70-NBD S275A mutant (Homo sapiens, UniProt P11142, S275A); assay: SPR binding to S275A HSC70-NBD mutant; conditions: n = 3
T4 construct: WT HSPA8 (HSC70) residues 1 to 381; GST (N, cleaved yes); made in house; host or cells: E. coli BL21-AI (expressed as described for FL-HSP72)
Description: SPR experiments were carried out using a Biacore T200 (GE Healthcare) at 25 °C. Amine coupling chemistry was used to immobilise the HSC70 NBD domain and […], […] and […] HSC70-NBD mutant proteins on a carboxymethyl-5'-dextran (CM5) sensor chip. […] The remaining activated groups on the surface were blocked with a 7 min injection of 1 M ethanolamine at pH 8.5. For all the above procedures the flow rate was maintained at 10 μL/min and a 1x phosphate buffered saline running buffer (PBS running buffer: 10 mM NaHPO4/NaH2PO4 pH 7.4, 2.7 mM KCl, 137 mM NaCl) was used during immobilisation. Approximately ~13,000 response units (RU) of protein could be routinely captured on the CM5 chip on flow cells two to four. Flow cell one was left unmodified as the reference surface. Our in-house fragment library of 1962 fragments at a stock concentration of 100 mM in 100% (v/v) was screened. SPR screening plates were prepared by dispensing of 0.1 μL of each fragment in 384-well polypropylene V-bottomed plates (Greiner) using an ECHO 550 acoustic liquid dispenser (Labcyte) followed by addition of fresh DMSO and running buffer to give a final fragment concentration of 125 μM in 5% (v/v) DMSO in an assay volume of 80 μL. The initial fragment hits were further investigated in a three-point concentration-response experiment against freshly immobilised WT HSC70-NBD and the […] HSC70-NBD mutants using the same experimental protocol as for the primary screen. Compound dilutions of 50, 100 and 200 μM were generated using the ECHO 550. A confirmed hit was defined as a fragment giving greater than 10% response compared to adenosine and these were prioritised on the basis of their concentration response, ratio of experimental and theoretical Rmax, and shape of the sensorgrams, and expected fast on/fast off binding kinetics. […] HSC70-NBD mutant. […] Nucleotides were dissolved in double distilled water to give 10 mM stock solutions, then diluted 40X with DMSO and tested using a concentration range between 0.0625 μM and 2.5 μM.

[1] = SPR, mean ± standard deviation or standard error, triplicate unless marked duplicate/single
[2] = SPR, mean ± SD, No binding = binding level ≤10RU at 1mM

T1 sequence (P11142 1-381): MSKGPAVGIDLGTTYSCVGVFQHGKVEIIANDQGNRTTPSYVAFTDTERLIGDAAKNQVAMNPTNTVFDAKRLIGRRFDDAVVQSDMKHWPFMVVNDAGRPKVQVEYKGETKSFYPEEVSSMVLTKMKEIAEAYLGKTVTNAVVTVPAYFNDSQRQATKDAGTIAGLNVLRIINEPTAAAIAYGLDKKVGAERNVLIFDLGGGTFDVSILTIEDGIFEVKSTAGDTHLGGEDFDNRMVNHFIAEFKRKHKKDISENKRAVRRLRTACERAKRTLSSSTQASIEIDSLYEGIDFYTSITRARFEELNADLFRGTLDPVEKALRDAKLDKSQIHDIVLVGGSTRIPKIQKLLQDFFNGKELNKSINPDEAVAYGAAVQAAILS
T3 sequence (P11142 1-381 S275F): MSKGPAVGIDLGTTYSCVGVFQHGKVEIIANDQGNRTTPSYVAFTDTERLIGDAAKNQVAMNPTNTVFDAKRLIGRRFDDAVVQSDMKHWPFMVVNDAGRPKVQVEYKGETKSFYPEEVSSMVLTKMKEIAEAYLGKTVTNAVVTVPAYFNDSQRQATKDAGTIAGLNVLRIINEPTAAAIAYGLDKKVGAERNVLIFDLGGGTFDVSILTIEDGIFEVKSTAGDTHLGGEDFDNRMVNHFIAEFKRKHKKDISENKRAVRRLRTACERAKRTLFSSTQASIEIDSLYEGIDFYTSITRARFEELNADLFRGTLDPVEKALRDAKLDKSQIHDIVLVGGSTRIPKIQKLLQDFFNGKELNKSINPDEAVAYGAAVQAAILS
T2 sequence (P11142 1-381 S275W): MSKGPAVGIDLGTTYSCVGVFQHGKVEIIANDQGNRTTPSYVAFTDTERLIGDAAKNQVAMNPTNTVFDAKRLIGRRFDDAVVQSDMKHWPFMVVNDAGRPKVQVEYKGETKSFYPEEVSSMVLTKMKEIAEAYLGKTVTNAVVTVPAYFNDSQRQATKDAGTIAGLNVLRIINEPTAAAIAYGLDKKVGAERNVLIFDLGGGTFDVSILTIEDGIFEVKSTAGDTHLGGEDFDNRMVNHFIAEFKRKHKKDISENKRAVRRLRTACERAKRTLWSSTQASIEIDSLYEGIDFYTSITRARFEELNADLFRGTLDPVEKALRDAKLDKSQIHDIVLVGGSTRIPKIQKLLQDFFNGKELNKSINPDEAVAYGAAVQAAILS
T4 sequence (P11142 1-381 S275A): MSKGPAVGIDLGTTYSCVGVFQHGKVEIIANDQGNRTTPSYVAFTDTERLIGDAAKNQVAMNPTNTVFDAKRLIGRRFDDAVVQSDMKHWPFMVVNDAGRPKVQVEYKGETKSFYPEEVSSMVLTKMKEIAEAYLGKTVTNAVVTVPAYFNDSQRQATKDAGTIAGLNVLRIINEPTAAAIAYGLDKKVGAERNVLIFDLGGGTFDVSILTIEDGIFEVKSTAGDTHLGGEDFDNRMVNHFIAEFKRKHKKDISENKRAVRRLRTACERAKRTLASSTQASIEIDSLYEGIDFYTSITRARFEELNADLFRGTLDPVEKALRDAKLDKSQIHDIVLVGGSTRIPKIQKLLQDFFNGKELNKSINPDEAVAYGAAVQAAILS

## Cc1ccc2ncnc(N)c2c1 [Compound 8]
WT HSC70-NBD; [1]
  Kd: 1400 ± 100 µM
WT HSC70-NBD
  LE (ligand efficiency): 0.33
S275W HSC70-NBD
  binding to S275W HSC70-NBD mutant (in words): reduced binding and a low degree of saturation
S275F HSC70-NBD
  binding to S275F HSC70-NBD mutant (in words): reduced binding and a low degree of saturation

## Nc1ccn([C@@H]2O[C@H](COP(=O)(O)OP(=O)(O)O)[C@@H](O)[C@H]2O)c(=O)n1 [CDP, reference compound]
WT HSC70-NBD; [2]
  Kd WT HSC70-NBD: No binding

## Nc1ncnc2c1ncn2[C@@H]1O[C@H](COP(=O)(O)OP(=O)(O)O)[C@@H](O)[C@H]1O [ADP, reference compound]
WT HSC70-NBD; [2]
  Kd: 0.71 ± 0.32 µM
WT HSC70-NBD
  LE (ligand efficiency): 0.31
S275W HSC70-NBD
  binding to S275W HSC70-NBD mutant (in words): abolished binding
S275F HSC70-NBD
  binding to S275F HSC70-NBD mutant (in words): abolished binding
HSC70-NBD S275A mutant
  Kd: 5.6 ± 2.4 µM

## Nc1nc2ncnc(N)c2[nH]1 [Compound 6, 8-aminoadenine, reference compound]
WT HSC70-NBD; [2]
  Kd: 2100 µM
WT HSC70-NBD
  LE (ligand efficiency): 0.34

## CN1N=C(N)c2c[nH]c3ncnc1c23 [Compound 3]
WT HSC70-NBD; [1]
  Kd: 3500 ± 600 µM

## COc1ccc2ncnc(N)c2c1 [Compound 16, 6-methoxy 4-aminoquinazoline]
WT HSC70-NBD; [1]
  Kd: 1000 µM

## COc1ccc2c(N)ncnc2c1 [Compound 17]
WT HSC70-NBD; [1]
  Kd: 850 µM

## N#Cc1ccc(COC[C@H]2C[C@@H](Nc3ncnc4cccc(OCc5ccccc5)c34)[C@H](O)[C@@H]2O)cc1 [Compound 29]
WT HSC70-NBD; [1]
  Kd: 2000 µM
WT HSC70-NBD
  LE (ligand efficiency): 0.10
S275W HSC70-NBD; single measurement
  Kd: 2000 µM

## OC[C@H]1C[C@@H](Nc2ncnc3cccc(OCc4ccccc4)c23)[C@H](O)[C@@H]1O [Compound 28]
WT HSC70-NBD; [1]
  Kd: 370 µM
WT HSC70-NBD
  LE (ligand efficiency): 0.17
S275W HSC70-NBD; single measurement
  Kd S275W HSC70-NBD: No binding

## OC[C@H]1C[C@@H](Nc2ncnc3cccc(OCc4ccc(Cl)c(Cl)c4)c23)[C@H](O)[C@@H]1O [Compound 27]
WT HSC70-NBD; [1]
  Kd: 850 µM
WT HSC70-NBD
  LE (ligand efficiency): 0.14
S275W HSC70-NBD; single measurement
  Kd: 5000 µM

## COc1cc2ncnc(N)c2cc1OC [Compound 19]
WT HSC70-NBD; [1]
  Kd: 830 µM

## COc1cccc2ncnc(N)c12 [Compound 15]
WT HSC70-NBD; [1]
  Kd: 830 µM

## COc1cc2ncnc(N[C@@H]3C[C@H](CO)[C@@H](O)[C@H]3O)c2cc1OC [Compound 24]
WT HSC70-NBD
  increase in affinity compared to parent fragment: three-fold
WT HSC70-NBD; [1]
  Kd: 250 µM

## Nc1nc2c(ncn2[C@@H]2O[C@H](COP(=O)(O)OP(=O)(O)O)[C@@H](O)[C@H]2O)c(=O)[nH]1 [GDP, reference compound]
WT HSC70-NBD; [2]
  Kd: 223 µM
WT HSC70-NBD
  LE (ligand efficiency): 0.18

## COc1cccc2ncnc(N[C@@H]3C[C@H](CO)[C@@H](O)[C@H]3O)c12 [Compound 26]
WT HSC70-NBD; [1]
  Kd: 1040 µM

## Cc1cccc2ncnc(N)c12 [Compound 12]
WT HSC70-NBD; [1]
  Kd: 12000 µM

## COc1cccc2c(N)ncnc12 [Compound 18]
WT HSC70-NBD; [1]
  Kd: 2000 µM

## Nc1ncnc2c1nc(N)n2[C@@H]1O[C@H](CO)[C@@H](O)[C@H]1O [Compound 4, 8-aminoadenosine, reference compound]
WT HSC70-NBD; [2]
  Kd: 8 µM
WT HSC70-NBD
  LE (ligand efficiency): 0.35

## Nc1ncnc2[nH]cnc12 [Compound 5, adenine, reference compound]
WT HSC70-NBD; [2]
  Kd WT HSC70-NBD: No binding

## Cc1cccc2c(N)ncnc12 [Compound 14]
WT HSC70-NBD; [1]
  Kd: 2900 µM

## Cc1nc(N)c2ccccc2n1 [Compound 11]
WT HSC70-NBD; SPR
  binding to WT HSC70-NBD (in words): no detectable affinity

## Cc1ccc2c(N)ncnc2c1 [Compound 13, 7-methyl 4-aminoquinazoline]
WT HSC70-NBD; [1]
  Kd: 800 µM

## CNc1ncnc2ccccc12 [Compound 20]
WT HSC70-NBD; [1]
  Kd: 4800 ± 1100 µM

## OC[C@H]1C[C@@H](Nc2ncnc3ccccc23)[C@H](O)[C@@H]1O [Compound 23]
WT HSC70-NBD
  increase in affinity compared to parent fragment: 7 fold
WT HSC70-NBD; [2]
  Kd: 310 ± 100 µM

## Nc1ncnc2c1ncn2[C@@H]1O[C@H](COP(=O)(O)OP(=O)(O)OP(=O)(O)O)[C@@H](O)[C@H]1O [ATP, reference compound]
WT HSC70-NBD; [2]
  Kd: 0.33 µM
WT HSC70-NBD
  LE (ligand efficiency): 0.29
HSC70-NBD S275A mutant
  Kd: 2.1 µM

## Cc1cn([C@H]2C[C@H](O)[C@@H](COP(=O)(O)OP(=O)(O)O)O2)c(=O)[nH]c1=O [TDP, reference compound]
WT HSC70-NBD; [2]
  Kd WT HSC70-NBD: No binding

## O=c1ccn([C@@H]2O[C@H](COP(=O)(O)OP(=O)(O)O)[C@@H](O)[C@H]2O)c(=O)[nH]1 [UDP, reference compound]
WT HSC70-NBD; [2]
  Kd WT HSC70-NBD: No binding

## Nc1ncnc2ccccc12 [Compound 10]
WT HSC70-NBD; [1]
  Kd: 2100 µM

## O=c1[nH]cnc2c1oc1ccccc12 [Compound 7]
WT HSC70-NBD; [1]
  Kd: 1700 ± 600 µM
WT HSC70-NBD
  LE (ligand efficiency): 0.27
S275W HSC70-NBD
  binding to S275W HSC70-NBD mutant (in words): reduced binding and a low degree of saturation
S275F HSC70-NBD
  binding to S275F HSC70-NBD mutant (in words): reduced binding and a low degree of saturation
